Source: PMC5814754, “Quantitative, Wide-Spectrum Kinase Profiling in Live Cells for Assessing the Effect of Cellular ATP on Target Engagement” (Cell Chemical Biology, 2018)
Read-outs that look alike come from different tables or passages of the source.

How the values were obtained:
Experiment in all cases: NanoBRET single-dose fractional occupancy profiling of kinase/Nluc library in live HEK293 cells (Table S1)
Format in all cases: binding
Set-up in all cases: receptor occupancy: dose or concentration left out as unconfirmed; Occupancy, % Replicate 1 / Occupancy, % Replicate 2: unit of the concentration uncertain
[1] = molecular target: 178 full-length kinases (Homo sapiens, UniProt Q8TD19); conditions: NEK9, Nluc N, probe 5 at 1 (unit uncertain)
[2] = molecular target: 178 full-length kinases (Homo sapiens, UniProt Q9BVS4); conditions: RIOK2, Nluc N, probe 5 at 1 (unit uncertain)
[3] = molecular target: 178 full-length kinases (Homo sapiens, UniProt Q15349); conditions: RPS6KA2 (NP_001305865), Nluc orientation N, probe 5 at 0.5 (unit uncertain)
[4] = molecular target: 178 full-length kinases (Homo sapiens, UniProt O94768); conditions: STK17B (NP_004217), Nluc orientation C, probe 1 at 1 (unit uncertain)
[5] = molecular target: 178 full-length kinases (Homo sapiens, UniProt O96013); conditions: PAK4, Nluc C, probe 5 at 1 (unit uncertain)
[6] = molecular target: 178 full-length kinases (Homo sapiens, UniProt Q00535); conditions: CDK5, Nluc C, probe 5 at 1 (unit uncertain)
[7] = molecular target: 178 full-length kinases (Homo sapiens, UniProt Q5S007); conditions: LRRK2, Nluc C
Sequence of 178 full-length kinases (Homo sapiens, UniProt Q5S007) (Q5S007 whole entry): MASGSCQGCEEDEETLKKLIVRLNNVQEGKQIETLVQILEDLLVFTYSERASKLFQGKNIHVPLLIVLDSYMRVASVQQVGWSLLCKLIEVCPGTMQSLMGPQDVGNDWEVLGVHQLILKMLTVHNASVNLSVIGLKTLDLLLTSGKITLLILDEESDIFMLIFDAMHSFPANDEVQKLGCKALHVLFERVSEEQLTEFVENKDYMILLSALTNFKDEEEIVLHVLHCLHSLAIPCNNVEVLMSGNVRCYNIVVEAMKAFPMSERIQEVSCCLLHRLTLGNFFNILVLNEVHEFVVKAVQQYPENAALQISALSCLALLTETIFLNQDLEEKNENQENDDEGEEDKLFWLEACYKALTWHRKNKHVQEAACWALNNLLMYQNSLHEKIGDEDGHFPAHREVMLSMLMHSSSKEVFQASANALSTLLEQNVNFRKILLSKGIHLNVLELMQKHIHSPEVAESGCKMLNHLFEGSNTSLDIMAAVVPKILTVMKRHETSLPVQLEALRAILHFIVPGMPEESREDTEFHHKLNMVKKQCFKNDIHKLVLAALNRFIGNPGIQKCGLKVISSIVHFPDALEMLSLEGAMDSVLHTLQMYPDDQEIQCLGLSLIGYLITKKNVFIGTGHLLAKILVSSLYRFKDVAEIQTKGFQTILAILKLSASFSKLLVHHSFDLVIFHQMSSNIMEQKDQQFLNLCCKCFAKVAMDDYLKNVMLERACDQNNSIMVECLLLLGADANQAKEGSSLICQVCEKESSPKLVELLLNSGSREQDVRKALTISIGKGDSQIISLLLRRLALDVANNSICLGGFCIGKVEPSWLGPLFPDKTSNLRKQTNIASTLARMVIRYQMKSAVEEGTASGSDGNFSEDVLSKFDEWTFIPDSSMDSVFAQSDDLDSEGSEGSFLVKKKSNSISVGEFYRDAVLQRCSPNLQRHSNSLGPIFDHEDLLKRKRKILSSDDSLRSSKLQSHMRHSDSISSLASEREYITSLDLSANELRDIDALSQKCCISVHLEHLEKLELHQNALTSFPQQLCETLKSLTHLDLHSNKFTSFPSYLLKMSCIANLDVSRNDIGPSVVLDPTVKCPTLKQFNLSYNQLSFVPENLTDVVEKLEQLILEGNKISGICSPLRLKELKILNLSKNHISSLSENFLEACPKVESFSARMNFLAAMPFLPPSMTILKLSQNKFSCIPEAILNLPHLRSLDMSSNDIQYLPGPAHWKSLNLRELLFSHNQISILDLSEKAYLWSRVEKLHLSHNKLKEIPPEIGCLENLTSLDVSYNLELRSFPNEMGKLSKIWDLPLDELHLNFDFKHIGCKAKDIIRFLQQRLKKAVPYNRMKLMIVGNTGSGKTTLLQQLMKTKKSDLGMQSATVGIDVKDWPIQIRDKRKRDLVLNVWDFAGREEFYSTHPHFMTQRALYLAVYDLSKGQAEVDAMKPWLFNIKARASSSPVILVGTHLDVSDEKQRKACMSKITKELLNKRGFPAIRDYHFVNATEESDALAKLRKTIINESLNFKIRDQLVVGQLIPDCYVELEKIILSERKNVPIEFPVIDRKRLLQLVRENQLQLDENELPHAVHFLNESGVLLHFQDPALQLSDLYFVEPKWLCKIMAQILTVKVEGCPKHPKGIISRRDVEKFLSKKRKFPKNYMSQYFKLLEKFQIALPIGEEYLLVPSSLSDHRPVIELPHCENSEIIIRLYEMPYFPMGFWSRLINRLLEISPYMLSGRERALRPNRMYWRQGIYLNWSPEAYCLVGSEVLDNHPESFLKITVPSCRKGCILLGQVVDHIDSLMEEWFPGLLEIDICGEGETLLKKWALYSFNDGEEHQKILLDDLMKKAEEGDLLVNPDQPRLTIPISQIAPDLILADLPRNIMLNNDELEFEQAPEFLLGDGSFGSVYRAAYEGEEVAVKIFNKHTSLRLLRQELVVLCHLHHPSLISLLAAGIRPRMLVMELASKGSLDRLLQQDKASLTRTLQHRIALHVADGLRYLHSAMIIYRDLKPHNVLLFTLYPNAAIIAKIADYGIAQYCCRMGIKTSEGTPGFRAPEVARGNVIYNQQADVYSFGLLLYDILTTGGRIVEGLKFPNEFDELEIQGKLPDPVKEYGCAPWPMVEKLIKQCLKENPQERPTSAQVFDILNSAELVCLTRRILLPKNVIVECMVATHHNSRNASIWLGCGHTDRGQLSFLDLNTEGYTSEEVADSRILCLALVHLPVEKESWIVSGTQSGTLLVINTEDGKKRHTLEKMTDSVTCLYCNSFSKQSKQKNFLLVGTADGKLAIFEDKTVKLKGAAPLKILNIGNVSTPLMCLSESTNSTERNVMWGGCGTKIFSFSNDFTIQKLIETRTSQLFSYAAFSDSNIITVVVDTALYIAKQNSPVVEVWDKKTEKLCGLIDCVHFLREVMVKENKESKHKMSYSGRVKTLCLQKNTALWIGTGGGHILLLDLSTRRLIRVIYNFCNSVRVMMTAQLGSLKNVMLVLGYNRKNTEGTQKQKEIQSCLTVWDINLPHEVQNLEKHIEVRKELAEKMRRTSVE

[8] = molecular target: 178 full-length kinases (Homo sapiens, UniProt P17612); conditions: PRKACA, Nluc C, probe 5 at 1 (unit uncertain)
[9] = molecular target: 178 full-length kinases (Homo sapiens, UniProt Q16832); conditions: DDR2, Nluc C, probe 6 at 0.1 (unit uncertain)
[10] = molecular target: 178 full-length kinases (Homo sapiens, UniProt Q9Y2K2); conditions: SIK3 (NP_079440), Nluc orientation N, probe 6 at 1 (unit uncertain)
Sequence of 178 full-length kinases (Homo sapiens, UniProt Q9Y2K2) (Q9Y2K2 whole entry): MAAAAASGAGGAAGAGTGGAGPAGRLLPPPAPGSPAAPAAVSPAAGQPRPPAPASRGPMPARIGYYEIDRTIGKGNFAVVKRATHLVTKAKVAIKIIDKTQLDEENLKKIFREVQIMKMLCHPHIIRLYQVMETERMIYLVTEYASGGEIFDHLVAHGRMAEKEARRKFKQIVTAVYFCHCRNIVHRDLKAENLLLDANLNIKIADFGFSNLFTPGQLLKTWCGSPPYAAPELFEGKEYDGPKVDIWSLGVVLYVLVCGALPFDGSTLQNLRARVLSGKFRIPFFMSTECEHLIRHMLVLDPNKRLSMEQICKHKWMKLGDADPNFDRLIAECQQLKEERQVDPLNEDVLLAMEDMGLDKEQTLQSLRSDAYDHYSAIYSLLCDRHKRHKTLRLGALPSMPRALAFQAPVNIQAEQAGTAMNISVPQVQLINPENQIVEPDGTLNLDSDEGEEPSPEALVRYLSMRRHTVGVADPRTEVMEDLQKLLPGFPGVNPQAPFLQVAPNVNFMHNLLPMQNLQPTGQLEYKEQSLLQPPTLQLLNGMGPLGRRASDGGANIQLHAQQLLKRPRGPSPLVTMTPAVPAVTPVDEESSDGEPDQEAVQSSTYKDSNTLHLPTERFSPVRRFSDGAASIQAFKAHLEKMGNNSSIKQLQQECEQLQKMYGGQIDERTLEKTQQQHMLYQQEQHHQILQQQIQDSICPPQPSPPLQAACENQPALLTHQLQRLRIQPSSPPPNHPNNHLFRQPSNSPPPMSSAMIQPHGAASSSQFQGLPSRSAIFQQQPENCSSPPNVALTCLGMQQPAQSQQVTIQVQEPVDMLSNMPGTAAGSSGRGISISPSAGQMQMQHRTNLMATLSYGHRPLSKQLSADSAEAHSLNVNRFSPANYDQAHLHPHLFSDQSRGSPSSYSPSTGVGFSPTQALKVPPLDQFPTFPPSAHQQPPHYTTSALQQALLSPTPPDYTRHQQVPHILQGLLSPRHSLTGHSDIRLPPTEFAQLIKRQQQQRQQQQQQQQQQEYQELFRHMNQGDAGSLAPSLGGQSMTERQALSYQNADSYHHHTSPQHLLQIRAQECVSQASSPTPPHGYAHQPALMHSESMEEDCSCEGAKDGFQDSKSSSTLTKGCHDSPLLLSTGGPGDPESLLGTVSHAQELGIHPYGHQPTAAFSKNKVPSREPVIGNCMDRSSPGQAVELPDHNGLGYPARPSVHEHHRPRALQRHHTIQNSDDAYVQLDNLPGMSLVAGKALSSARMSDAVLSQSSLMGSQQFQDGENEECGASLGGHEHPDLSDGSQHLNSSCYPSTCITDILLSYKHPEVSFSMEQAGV

[11] = molecular target: 178 full-length kinases (Homo sapiens, UniProt P36896); conditions: ACVR1B, Nluc C, probe 5 at 1 (unit uncertain)
[12] = molecular target: 178 full-length kinases (Homo sapiens, UniProt Q02156); conditions: PRKCE, Nluc C, probe 5 at 1 (unit uncertain)
[13] = molecular target: 178 full-length kinases (Homo sapiens, UniProt Q13882); conditions: PTK6, Nluc C, probe 6 at 0.5 (unit uncertain)
[14] = molecular target: 178 full-length kinases (Homo sapiens, UniProt Q8NG66); conditions: NEK11, Nluc N, probe 5 at 1 (unit uncertain)
[15] = molecular target: 178 full-length kinases (Homo sapiens, UniProt P57059); conditions: SIK1 (NP_001307572), Nluc orientation N, probe 6 at 0.1 (unit uncertain)
Sequence of 178 full-length kinases (Homo sapiens, UniProt P57059) (P57059 whole entry): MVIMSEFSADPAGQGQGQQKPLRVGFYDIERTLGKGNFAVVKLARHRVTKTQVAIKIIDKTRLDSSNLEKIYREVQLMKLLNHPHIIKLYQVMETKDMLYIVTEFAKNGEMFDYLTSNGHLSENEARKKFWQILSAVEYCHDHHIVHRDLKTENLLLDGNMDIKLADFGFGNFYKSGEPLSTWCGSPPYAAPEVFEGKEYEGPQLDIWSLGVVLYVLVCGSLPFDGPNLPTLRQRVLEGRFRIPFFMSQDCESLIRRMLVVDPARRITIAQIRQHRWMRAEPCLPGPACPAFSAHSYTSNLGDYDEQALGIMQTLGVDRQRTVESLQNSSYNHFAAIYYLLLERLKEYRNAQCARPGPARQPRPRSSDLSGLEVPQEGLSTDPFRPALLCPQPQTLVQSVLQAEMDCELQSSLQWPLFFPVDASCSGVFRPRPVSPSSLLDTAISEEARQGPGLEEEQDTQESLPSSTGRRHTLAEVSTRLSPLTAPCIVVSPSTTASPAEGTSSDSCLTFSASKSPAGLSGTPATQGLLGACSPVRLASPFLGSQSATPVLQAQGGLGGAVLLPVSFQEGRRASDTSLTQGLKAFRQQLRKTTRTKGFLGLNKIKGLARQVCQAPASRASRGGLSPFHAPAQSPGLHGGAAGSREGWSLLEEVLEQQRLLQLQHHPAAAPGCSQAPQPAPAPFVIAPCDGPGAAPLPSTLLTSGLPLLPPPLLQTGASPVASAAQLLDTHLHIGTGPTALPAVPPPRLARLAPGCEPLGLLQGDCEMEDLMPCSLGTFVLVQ

[16] = molecular target: 178 full-length kinases (Homo sapiens, UniProt P29597); conditions: TYK2 (NP_003322), Nluc orientation C, probe 5 at 1 (unit uncertain); replicate 1
[17] = molecular target: 178 full-length kinases (Homo sapiens, UniProt Q92772); conditions: CDKL2, Nluc N, probe 1 at 0.1 (unit uncertain)
Sequence of 178 full-length kinases (Homo sapiens, UniProt Q92772) (Q92772 whole entry): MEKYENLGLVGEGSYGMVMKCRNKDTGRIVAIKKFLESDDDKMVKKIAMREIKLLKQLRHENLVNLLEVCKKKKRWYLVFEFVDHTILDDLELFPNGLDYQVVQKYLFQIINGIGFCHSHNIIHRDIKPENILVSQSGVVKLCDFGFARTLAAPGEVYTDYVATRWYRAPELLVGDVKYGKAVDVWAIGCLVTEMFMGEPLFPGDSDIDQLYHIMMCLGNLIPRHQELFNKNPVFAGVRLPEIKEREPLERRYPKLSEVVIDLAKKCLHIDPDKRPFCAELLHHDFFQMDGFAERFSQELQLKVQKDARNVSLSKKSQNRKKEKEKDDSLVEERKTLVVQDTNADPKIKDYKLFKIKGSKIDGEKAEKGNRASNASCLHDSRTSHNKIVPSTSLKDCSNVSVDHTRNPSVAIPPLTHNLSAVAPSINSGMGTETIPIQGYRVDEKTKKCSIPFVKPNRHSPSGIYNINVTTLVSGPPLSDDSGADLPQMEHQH

[18] = molecular target: 178 full-length kinases (Homo sapiens, UniProt O95835); conditions: LATS1, Nluc C, probe 5 at 0.5 (unit uncertain)

C[C@@H](Oc1cc(-c2cnn(C3CCNCC3)c2)cnc1N)c1c(Cl)ccc(F)c1Cl [Crizotinib]
Occupancy, % Replicate 1 [1]: No Binding
Occupancy, % Replicate 1 [2]: No Binding
Occupancy, % Replicate 2 [2]: No Binding
Occupancy, % Replicate 1 ([3]; replicate 1): No Binding
Occupancy, % Replicate 2 ([3]; replicate 2): No Binding
Occupancy, % Replicate 1 ([4]; replicate 1): No Binding
Occupancy, % Replicate 2 ([4]; replicate 2): No Binding
Occupancy, % Replicate 2 [5]: No Binding
Occupancy, % Replicate 1 [6]: No Binding
Occupancy, % Replicate 2 [6]: No Binding
receptor occupancy ([7]; read-out: Occupancy, % Replicate 1): 14%
receptor occupancy ([7]; read-out: Occupancy, % Replicate 2): 31%
Occupancy, % Replicate 1 [8]: No Binding
Occupancy, % Replicate 2 [8]: No Binding
Occupancy, % Replicate 1 [9]: No Binding
Occupancy, % Replicate 1 ([10]; replicate 1): No Binding
Occupancy, % Replicate 2 ([10]; replicate 2): No Binding
Occupancy, % Replicate 2 [11]: No Binding
Occupancy, % Replicate 1 [12]: No Binding
Occupancy, % Replicate 2 [12]: No Binding
Occupancy, % Replicate 2 [13]: No Binding
Occupancy, % Replicate 2 [14]: No Binding
Occupancy, % Replicate 1 ([15]; replicate 1): No Binding
Occupancy, % Replicate 2 ([15]; replicate 2): No Binding
Occupancy, % Replicate 1 [16]: No Binding
Occupancy, % Replicate 1 [17]: No Binding
Occupancy, % Replicate 2 [17]: No Binding
Occupancy, % Replicate 1 [18]: No Binding
